Tested on: hamster liver nuclei
Test: DNA fragmentation assay (HeLa S-100 incubated with hamster liver nuclei)
Assay type: biochemical
Conditions: 1 mM nucleotide, 37° C., 2 hr
Method: FIGS. 1A-1D illustrate dATP-dependent activation of CPP32 and DNA fragmentation in vitro. Aliquots (10 μl) of HeLa cell S-100 (50 μg) were incubated alone (lane 1), in the presence of 1 mM ATP (lane 2), or in the presence of 1 mM dATP (lane 3) at 30° C. for 1 hr in a final volume of 20 μl of buffer A. FIG. 1A, samples were subjected to SDS-PAGE and transferred to a nitrocellulose filter, probed with a monoclonal anti-CPP32 antibody, and the antigen/antibody complex was visualized by the ECL method. The filter was exposed to Kodak X-OMAT AR X-ray film for 1 min. In FIG. 1B, an aliquot of 10 μl of in vitro translated, ^35S-labeled PARP was added to each reaction. After 5 min, the samples were subjected to SDS-PAGE and transferred to a nitrocellulose filter. The filter was exposed to film for 2 hr at room temperature. In FIG. 1C, a 5 μl aliquot of in vitro translated, ^35S-labeled SREBP-2 was added to each reaction. After incubation at 30° C. for 30 min, the samples were subjected to SDS-PAGE, the gel was dried and exposed to film for 2 hr at room temperature. […]
FIGS. 2A-2B illustrate the nucleotide specificity for in vitro activation of CPP32 and DNA fragmentation. […] The DNA was isolated, analyzed by 2% agarose gel electrophoresis and visualized by ethidium bromide staining. […]

SMILES: Nc1ncnc2c1ncn2[C@H]1C[C@H](O)[C@@H](COP(=O)(O)OP(=O)(O)OP(=O)(O)O)O1 [dATP, deoxyadenosine-5-triphosphate]
- DNA fragmentation in hamster liver nuclei: induced DNA fragmentation
